Columns and labels:
endogenous MLKL in MDF = endogenous MLKL in MDF (Mus musculus (Mouse), UniProt Q9D2Y4); assay: Degradation assay: endogenous MLKL in MDF (western blot); conditions: MDF cells, 24 h incubation with compound, MLKL adjusted for loading with GAPDH, normalized to DMSO only control, read-out: Degradation of endogenous MLKL in MDF (DC50 cell-based assay)
Procedure, shortened: (§1)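 Western blot band intensity of MLKL, adjusted to GAPDH loading and normalized to DMSO-only wells, gave percent degradation. Compound exposure lasted 24 h at final concentrations of 10–0.016 μM in 1:5 steps, in mouse dermal fibroblasts or human U937 cells.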

[1] = tested on: Immortalised Mouse Dermal Fibroblasts (MDFs); assay: Cellular assay: inhibition of TSI induced necroptosis, CellTitre-Glo viability; conditions: Mus musculus, Fibroblast; MDF, 3 hours TSI cocktail, Table 27; read-out: Inhibition of TSI-induced necroptosis (IC50 cell-based assay) in MDF
Procedure, shortened: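 Necroptosis induced for 3 h with TSI: rhTNF 100 ng/ml, Smac mimetic 500 nM, caspase inhibitor IDN-6556 10 μM. Mouse dermal fibroblasts had received compound (36 μM top, ten three-fold steps) 30 min beforehand. ATP-based viability scaled between untreated and TSI-only wells; IC50 taken as 4-parameter curve inflection.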

human MLKL (full length) = human MLKL (full length) (Homo sapiens (Human), UniProt Q8NB16); assay: KINOMEscan binding assay, human MLKL (full length); conditions: hMLKL, Table 25; read-out: MLKL (KD)
Procedure, shortened: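 In this assay, compounds displace DNA- or phage-tagged kinase from an immobilized ligand, and eluted kinase is quantified by qPCR.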

endogenous MLKL in U937 = endogenous MLKL in U937 (Homo sapiens (Human), UniProt Q8NB16); assay: Degradation assay: endogenous MLKL in U937 (western blot); conditions: U937, 24 h incubation, read-out: Degradation of endogenous MLKL in U937 (DC50 cell-based assay)
Procedure, shortened: as §1

Chain of endogenous MLKL in U937 (Q8NB16 whole entry): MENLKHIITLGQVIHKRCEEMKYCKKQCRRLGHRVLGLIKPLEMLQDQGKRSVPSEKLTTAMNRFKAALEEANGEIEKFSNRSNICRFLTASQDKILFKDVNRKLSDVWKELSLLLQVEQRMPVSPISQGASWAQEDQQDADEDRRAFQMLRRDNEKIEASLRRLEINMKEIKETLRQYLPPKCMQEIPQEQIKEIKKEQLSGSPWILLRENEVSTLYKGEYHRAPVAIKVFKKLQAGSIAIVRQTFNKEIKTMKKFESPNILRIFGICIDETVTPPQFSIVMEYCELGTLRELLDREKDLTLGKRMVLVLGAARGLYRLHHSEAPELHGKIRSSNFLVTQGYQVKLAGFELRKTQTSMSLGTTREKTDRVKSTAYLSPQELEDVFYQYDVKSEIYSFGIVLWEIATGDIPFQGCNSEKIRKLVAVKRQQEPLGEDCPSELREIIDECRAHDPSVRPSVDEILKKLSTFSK
Chain of human MLKL (full length) (Q8NB16 whole entry): as above
Chain of endogenous MLKL in MDF (Q9D2Y4 whole entry): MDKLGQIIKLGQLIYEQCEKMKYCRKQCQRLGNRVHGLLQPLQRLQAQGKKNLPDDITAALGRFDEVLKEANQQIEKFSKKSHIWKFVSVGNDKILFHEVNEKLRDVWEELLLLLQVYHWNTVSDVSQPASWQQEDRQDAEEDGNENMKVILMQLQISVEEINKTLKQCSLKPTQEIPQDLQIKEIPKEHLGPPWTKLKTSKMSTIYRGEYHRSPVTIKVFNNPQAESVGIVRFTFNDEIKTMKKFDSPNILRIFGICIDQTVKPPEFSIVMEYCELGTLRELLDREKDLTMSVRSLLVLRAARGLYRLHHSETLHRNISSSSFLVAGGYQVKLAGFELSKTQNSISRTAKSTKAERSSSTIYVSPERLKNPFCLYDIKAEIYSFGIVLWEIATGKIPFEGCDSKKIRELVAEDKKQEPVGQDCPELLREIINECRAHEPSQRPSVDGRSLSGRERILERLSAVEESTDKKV

| SMILES | DC50 (endogenous MLKL in MDF) [nM] | Kd (human MLKL (full length)) [nM] | DC50 (endogenous MLKL in U937) [nM] | IC50 [1] [nM] |
| --- | --- | --- | --- | --- |
| C[C@H](Oc1cc(-c2nn(C)c3c(-c4cnn(C5CCN(C(=O)C6CCN(c7cccc8c7C(=O)N(C7CCC(=O)NC7=O)C8=O)CC6)CC5)c4)cnc(N)c23)ccc1NS(=O)(=O)C(F)F)c1ccc(F)cc1 (stereo partly drawn) [Compound 1044, N-(4-{4-amino-7-[1-(1-{1-[2-(2,6-dioxopiperidin-3-yl)-1,3-dioxo-2,3-dihydro-1H-isoindol-4-yl]piperidine-4-carbonyl}piperidin-4-yl)-1H-pyrazol-4-yl]-1-methyl-1H-pyrazolo [4,3-c]pyridin-3-yl}-2-[(1S)-1-(4-fluorophenyl)ethoxy]phenyl)-1,1-difluoromethanesulfonamide] | < 1000 | < 10 | < 1000 | < 1000 |
| C[C@H](Oc1cc(-c2nn(C)c3c(-c4cnn(C5CCN(CCCC6CCN(c7cccc8c7C(=O)N(C7CCC(=O)NC7=O)C8=O)CC6)CC5)c4)cnc(N)c23)ccc1NS(=O)(=O)C(F)F)c1ccc(F)cc1 (stereo partly drawn) [Compound 1078, N-[4-(4-amino-7-{1-[1-(3-{1-[2-(2,6-dioxopiperidin-3-yl)-1,3-dioxo-2,3-dihydro-1H-isoindol-4-yl]piperidin-4-yl}propyl)piperidin-4-yl]-1H-pyrazol-4-yl}-1-methyl-1H-pyrazolo[4,3-c]pyridin-3-yl)-2-[(1S)-1-(4-fluorophenyl)ethoxy]phenyl]-1,1-difluoromethane-sulfonamide] | 1000 to 10000 | < 10 | 1000 to 10000 | < 1000 |
| C[C@H](Oc1cc(-c2nn(C)c3c(-c4cnn(C5CCN(C(=O)CC6CCCN(c7cccc8c7C(=O)N(C7CCC(=O)NC7=O)C8=O)C6)CC5)c4)cnc(N)c23)ccc1NS(=O)(=O)C(F)F)c1ccc(F)cc1 (stereo partly drawn) [Compound 1073, N-[4-(4-amino-7-{1-[1-(2-{1-[1,3-dioxo-2-(2-oxo-piperidin-3-2,3-yl)-dihydro-1H-isoindol-4-yl]piperidin-3-yl}acetyl)piperidin-4-yl]-1H-pyrazol-4-yl}-1-methyl-1H-pyrazolo[4,3-c]pyridin-3-yl)-2-[(1S)-1-(4-fluorophenyl)ethoxy]phenyl]-1,1-difluoromethanesulfonamide] | < 1000 | 10 to 1000 | < 1000 | < 1000 |

Further lines, with some results ahead:

| DC50 (endogenous MLKL in MDF) [nM] | Kd (human MLKL (full length)) [nM] | DC50 (endogenous MLKL in U937) [nM] | SMILES | IC50 [1] [nM] |
| --- | --- | --- | --- | --- |
| 1000 to 10000 | < 10 | < 1000 | C[C@H](Oc1cc(-c2nn(C)c3c(-c4cnn(C5CCN(C(=O)COc6cccc7c6C(=O)N(C6CCC(=O)NC6=O)C7=O)CC5)c4)cnc(N)c23)ccc1NS(=O)(=O)C(F)F)c1ccc(F)cc1 (stereo partly drawn) [Compound 1082, N-[4-(4-amino-7-{1-[1-(2-{[2-(2,6-dioxopiperidin-3-yl)-1,3-dioxo-2,3-dihydro-1H-isoindol-4-yl]oxy}acetyl)piperidin-4-yl]-1H-pyrazol-4-yl}-1-methyl-1H-pyrazolo[4,3-c]pyridin-3-yl)-^2-[(1S)-1-(4-fluorophenyl)ethoxy]phenyl]-1,1-difluoromethanesulfonamide] | 1000 to 10000 |
| < 1000 | 10 to 1000 | < 1000 | C[C@H](Oc1cc(-c2nn(C)c3c(-c4cnn(C5CCN(C(=O)C6CCC(c7cccc8c7C(=O)N(C7CCC(=O)NC7=O)C8=O)CC6)CC5)c4)cnc(N)c23)ccc1NS(=O)(=O)C(F)F)c1ccc(F)cc1 (stereo partly drawn) [Compound 1125, N-(4-{4-amino-7-[1-(1-{4-[2-(2,6-dioxopiperidin-3-yl)-1,3-dioxo-2,3-dihydro-1H-isoindol-4-yl]cyclohexane-carbonyl}piperidin-4-yl)-1H-pyrazol-4-yl]-1-methyl-1H-pyrazolo[4,3-c]pyridin-3-yl}-2-[(1S)-1-(4-fluorophenyl)ethoxy]phenyl)-1,1-difluoromethanesulfonamide] | < 1000 |

Reference: patent US20250115598A1 (Anaxis Pharma Pty Ltd, priority 2021, published 2025)
